Source: a compilation of properties of binary mixtures (doi:10.1016/j.molliq.2013.10.014)

Experiment: xn = mol fraction of the nth substance listed
Details: 100 kPa

c1ccsc1 + CCCC[n+]1ccn(C)c1.O=S(=O)([N-]S(=O)(=O)C(F)(F)F)C(F)(F)F
viscosity [mPa·s]
Details	x1 = 0.089	x1 = 0.276	x1 = 0.336	x1 = 0.561	x1 = 0.77	x1 = 1
298.15 K	42.6	26.6	23.2	–	6.86	–
308.15 K	–	–	16.58	10.95	5.35	0.585
318.15 K	20.8	13.9	12.37	8.45	4.29	0.525
328.15 K	15.53	10.66	9.54	6.72	3.52	0.47

c1ccccc1 + CCCC[n+]1ccn(C)c1.O=S(=O)([O-])C(F)(F)F
x1 = 1
Details	viscosity [mPa·s]
298.15 K	0.605
328.15 K	0.363

c1ccccc1 + CC[n+]1ccn(C)c1.O=S(=O)([N-]S(=O)(=O)C(F)(F)F)C(F)(F)F
x1 = 1
Details	viscosity [mPa·s]
298.15 K	0.605
308.15 K	0.527
318.15 K	0.466
328.15 K	0.363

CCCC[n+]1ccn(C)c1.O=S(=O)([O-])C(F)(F)F + c1ccccc1
viscosity [mPa·s]
Details	x2 = 0	x2 = 0.122	x2 = 0.304	x2 = 0.353	x2 = 0.467	x2 = 0.573
298.15 K	–	–	37.2	32.8	19.8	–
308.15 K	56.4	–	–	22.6	14.22	9.37
318.15 K	38.3	29.2	18.23	16.33	–	–
328.15 K	27.3	21.2	–	12.3	–	5.71

CC[n+]1ccn(C)c1.O=S(=O)([N-]S(=O)(=O)C(F)(F)F)C(F)(F)F + c1ccccc1
viscosity [mPa·s]
Details	x2 = 0	x2 = 0.135	x2 = 0.339	x2 = 0.471	x2 = 0.492
298.15 K	33	–	–	11.41	10.4
308.15 K	23.7	18.44	11.75	8.65	7.98
318.15 K	17.69	14.02	9.11	–	6.31
328.15 K	–	10.93	–	5.5	5.16

CCCC[n+]1ccn(C)c1.O=S(=O)([N-]S(=O)(=O)C(F)(F)F)C(F)(F)F + c1ccsc1
x2 = 0
Details	viscosity [mPa·s]
298.15 K	51.32
308.15 K	34.4
318.15 K	24.4
